In paper PMC6350621, “Small-molecules that covalently react with a human prolyl hydroxylase – towards activity modulation and substrate capture” (Chemical Communications (Cambridge, England), 2018):
Each block holds one compound with its values, some of them ahead of it.

Tests used:
PHD2 [1] = system: PHD2; design: method as in PMID 16782814; conditions: reversible iron-binding inhibitor; cited from earlier work
PHD2_181–426 = biological target: T1, PHD2_181–426 (Homo sapiens, UniProt Q9GZT9); assay: Non-denaturing ESI-MS of covalent adduct formation with PHD2; assay type: binding; conditions: for covalent modification of PHD2: analogues of 1/2, compared with 1/2; for condensation (covalent adduct) with PHD2 after 5 min: equimolar PHD2 (20 μM), Fe(II) and compound; for covalent reaction with PHD2 after 20 min: equimolar PHD2 and Fe(II), cone voltage 200 V
T1 construct: PHD2_181–426 (hereafter PHD2); His6 (N, cleaved yes); made in house; host or cells: bacterial culture (2x TY, kanamycin, IPTG)
Method: The interaction of the ligands with PHD2_181–426 (hereafter PHD2) was examined by non-denaturing ESI-MS, using cone voltage variation to distinguish covalent and non-covalent complexes (non-covalent interactions are typically preserved at cone voltages of 50–80 V, and dissociated at 200 V).[16]–[18] Aldehydes 1 and 2 were incubated with equimolar PHD2 and Fe(II) (37 °C; 5 or 20 min). […] Without Fe(II), neither covalent nor non-covalent adducts were observed, implying covalent conjugation involves active site Fe(II) binding, with subsequent condensation.
Fig. S2 A) Schematic representation of the assigned species formed on addition of 1 or 2 to PHD2. The results support initial non-covalent binding of the inhibitors to PHD2.Fe(II) to form B. Subsequently, condensation of a lysine residue with the aldehyde forms the covalent adduct C. (B) and (C): Non-denaturing ESI-MS data support the covalent crosslinking of 1/2 with PHD2. Conditions: PHD2 (20 µM) was incubated (37 °C, 5 or 20 min) with equimolar FeSO4 and 1 or 2, and the resulting mixtures were analysed by ESI-MS (cone voltage: 50 V or 200 V). Labelled peaks correspond to: A: Unmodified PHD2.Fe. B: Non-covalent adduct PHD2.Fe.2. C: Covalent adduct PHD2.Fe.1/2.
Fig. S6 The α,β-unsaturated amide 3 can covalently modify PHD2. (A) Schematic representation of the adducts formed upon incubation of 3 with PHD2.
PHD2. PHD2 (20 µM) was incubated (37 °C, 5 min, 1 h or 2 h) with equimolar FeSO4 and 3 or 4 before analysis by ESI-MS (cone voltage: 50 V or 200 V). Labelled peaks correspond to the following assigned complexes: A: unmodified PHD2.Fe; B: the non-covalent PHD2.Fe.3 adduct; C: the covalent PHD2.Fe.3 adduct.
2. Experimental procedures
1.1.1 Non-denaturing mass spectrometry1
Apo PHD2 was desalted using a Bio-Spin 6 Column (Bio-Rad, Hemel Hempstead, UK) into 15 mM ammonium acetate (pH 7.5). The stock solution was diluted with the same buffer to a final concentration of 100 μM. FeSO4·7H2O was dissolved in 20 mM HCl at a concentration of 100 mM. This solution was then diluted with MilliQ purified water to give a final working concentration of 100 μM. The protein was mixed with the Fe(II) solution and the inhibitor solution to give final concentrations of 20 μM PHD2, 20 μM Fe(II), and 20 μM inhibitor. The resultant solution was incubated for the appropriate time (specified in the text) at 37 […]
(5 min or 20 min) at 37 °C. After incubation, the samples were immediately analysed by ESI-MS. Data were acquired using a Q-TOF mass spectrometer (Q-TOF micro, Micromass, Altrincham, UK) interfaced with a Nanomate (Advion Biosciences, Ithaca, NY, USA) with a chip voltage of 1.70 kV and a delivery pressure 0.5 psi (1 psi = […]). The sample cone voltage was typically 200 or 50 V with a source temperature of 40 °C and with an acquisition/scan time of 10s/1s. Sample acquisition was performed in positive ion mode in the range of 2000-4000 m/z. The pressure at the interface between the atmospheric source and the high vacuum region was fixed at 6.30 mbar. External instrument calibration was achieved using sodium iodide.

HIF-1α in HeLa cells = assay: HIF-1α levels in HeLa cells by anti-HIF-1α immunoblotting; conditions: 6 h
PHD2 [2] = biological target: T2, PHD2 (Homo sapiens, UniProt Q9GZT9); assay: Peptide turnover assay (CODD hydroxylation) with MALDI-MS detection; assay type: biochemical; conditions: >95% crosslinked PHD2·Fe·compound, 30 µM compound kept in the assay
T2 construct: PHD2_181–426 (hereafter PHD2); His6 (N, cleaved yes); made in house; host or cells: bacterial culture (2x TY, kanamycin, IPTG)

PHD2 (residues 181-426) [3] = biological target: T3, PHD2 (residues 181-426) (Homo sapiens, UniProt Q9GZT9); assay: biochemical
PHD2 (residues 181-426) [4] = biological target: T3, PHD2 (residues 181-426); assay: AlphaScreen antibody based PHD2 inhibition assay; conditions: preincubated versus not
KDM5B = KDM5B (Homo sapiens, UniProt Q9UGL1); assay: AlphaScreen assay KDM5B
KDM6B = KDM6B (Homo sapiens, UniProt O15054); assay: AlphaScreen assay KDM6B
KDM4A = biological target: T4, KDM4A (Homo sapiens, UniProt O75164); assay: AlphaScreen assay KDM4A
T4 sequence (O75164 1-1064): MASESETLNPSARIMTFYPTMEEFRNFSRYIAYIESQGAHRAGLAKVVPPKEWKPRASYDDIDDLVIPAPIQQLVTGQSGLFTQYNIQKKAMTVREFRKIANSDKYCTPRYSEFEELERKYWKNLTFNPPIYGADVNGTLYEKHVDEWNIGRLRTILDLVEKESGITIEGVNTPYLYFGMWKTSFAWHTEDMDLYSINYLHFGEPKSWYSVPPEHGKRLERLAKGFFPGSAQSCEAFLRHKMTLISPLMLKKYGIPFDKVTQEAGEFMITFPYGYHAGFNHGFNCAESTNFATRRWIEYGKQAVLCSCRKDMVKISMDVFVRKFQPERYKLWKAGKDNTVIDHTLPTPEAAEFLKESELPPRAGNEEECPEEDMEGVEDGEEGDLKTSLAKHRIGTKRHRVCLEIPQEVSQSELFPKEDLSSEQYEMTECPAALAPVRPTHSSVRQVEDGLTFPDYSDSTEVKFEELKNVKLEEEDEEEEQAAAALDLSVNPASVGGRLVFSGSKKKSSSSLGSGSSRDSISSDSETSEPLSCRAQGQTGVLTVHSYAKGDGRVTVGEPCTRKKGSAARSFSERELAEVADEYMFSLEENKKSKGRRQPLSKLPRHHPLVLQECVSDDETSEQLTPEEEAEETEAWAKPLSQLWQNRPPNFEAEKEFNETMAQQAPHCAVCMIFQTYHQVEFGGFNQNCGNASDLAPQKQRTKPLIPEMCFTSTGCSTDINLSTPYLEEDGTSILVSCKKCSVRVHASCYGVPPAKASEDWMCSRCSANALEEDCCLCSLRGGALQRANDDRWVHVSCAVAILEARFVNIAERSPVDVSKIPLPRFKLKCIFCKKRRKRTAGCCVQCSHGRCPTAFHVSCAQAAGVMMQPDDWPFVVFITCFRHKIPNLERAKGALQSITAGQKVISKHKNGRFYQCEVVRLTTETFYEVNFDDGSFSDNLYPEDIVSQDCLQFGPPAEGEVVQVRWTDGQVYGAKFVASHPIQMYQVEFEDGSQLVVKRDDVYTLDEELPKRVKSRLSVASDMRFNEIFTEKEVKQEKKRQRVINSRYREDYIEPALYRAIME

KDM4D = biological target: T5, KDM4D (Homo sapiens, UniProt Q6B0I6); assay: AlphaScreen assay KDM4D
T5 sequence (Q6B0I6 1-523): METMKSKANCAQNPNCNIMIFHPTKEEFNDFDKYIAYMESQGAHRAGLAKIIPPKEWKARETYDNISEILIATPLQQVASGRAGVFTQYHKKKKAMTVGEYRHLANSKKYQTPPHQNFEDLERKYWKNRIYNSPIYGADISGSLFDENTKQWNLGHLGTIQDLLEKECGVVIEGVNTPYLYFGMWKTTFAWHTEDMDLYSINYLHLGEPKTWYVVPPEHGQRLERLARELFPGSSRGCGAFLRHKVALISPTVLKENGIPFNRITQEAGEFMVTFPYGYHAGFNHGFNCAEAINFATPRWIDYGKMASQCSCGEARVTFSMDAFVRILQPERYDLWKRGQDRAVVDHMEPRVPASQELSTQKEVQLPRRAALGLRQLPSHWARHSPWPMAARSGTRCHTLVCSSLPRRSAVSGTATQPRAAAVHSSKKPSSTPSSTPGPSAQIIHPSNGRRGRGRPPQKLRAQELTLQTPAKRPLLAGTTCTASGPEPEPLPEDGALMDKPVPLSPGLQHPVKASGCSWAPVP

T1 sequence (Q9GZT9 181-426): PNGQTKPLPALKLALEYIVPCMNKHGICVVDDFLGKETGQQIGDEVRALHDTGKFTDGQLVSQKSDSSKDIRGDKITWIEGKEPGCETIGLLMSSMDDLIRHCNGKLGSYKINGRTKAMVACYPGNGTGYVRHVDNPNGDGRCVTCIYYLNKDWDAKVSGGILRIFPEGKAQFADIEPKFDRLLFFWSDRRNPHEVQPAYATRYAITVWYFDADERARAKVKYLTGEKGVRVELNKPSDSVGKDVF
T3 sequence (Q9GZT9 181-426): as above
T2 sequence (Q9GZT9 181-426): as above
Chain of KDM6B (O15054 whole entry, species assumed): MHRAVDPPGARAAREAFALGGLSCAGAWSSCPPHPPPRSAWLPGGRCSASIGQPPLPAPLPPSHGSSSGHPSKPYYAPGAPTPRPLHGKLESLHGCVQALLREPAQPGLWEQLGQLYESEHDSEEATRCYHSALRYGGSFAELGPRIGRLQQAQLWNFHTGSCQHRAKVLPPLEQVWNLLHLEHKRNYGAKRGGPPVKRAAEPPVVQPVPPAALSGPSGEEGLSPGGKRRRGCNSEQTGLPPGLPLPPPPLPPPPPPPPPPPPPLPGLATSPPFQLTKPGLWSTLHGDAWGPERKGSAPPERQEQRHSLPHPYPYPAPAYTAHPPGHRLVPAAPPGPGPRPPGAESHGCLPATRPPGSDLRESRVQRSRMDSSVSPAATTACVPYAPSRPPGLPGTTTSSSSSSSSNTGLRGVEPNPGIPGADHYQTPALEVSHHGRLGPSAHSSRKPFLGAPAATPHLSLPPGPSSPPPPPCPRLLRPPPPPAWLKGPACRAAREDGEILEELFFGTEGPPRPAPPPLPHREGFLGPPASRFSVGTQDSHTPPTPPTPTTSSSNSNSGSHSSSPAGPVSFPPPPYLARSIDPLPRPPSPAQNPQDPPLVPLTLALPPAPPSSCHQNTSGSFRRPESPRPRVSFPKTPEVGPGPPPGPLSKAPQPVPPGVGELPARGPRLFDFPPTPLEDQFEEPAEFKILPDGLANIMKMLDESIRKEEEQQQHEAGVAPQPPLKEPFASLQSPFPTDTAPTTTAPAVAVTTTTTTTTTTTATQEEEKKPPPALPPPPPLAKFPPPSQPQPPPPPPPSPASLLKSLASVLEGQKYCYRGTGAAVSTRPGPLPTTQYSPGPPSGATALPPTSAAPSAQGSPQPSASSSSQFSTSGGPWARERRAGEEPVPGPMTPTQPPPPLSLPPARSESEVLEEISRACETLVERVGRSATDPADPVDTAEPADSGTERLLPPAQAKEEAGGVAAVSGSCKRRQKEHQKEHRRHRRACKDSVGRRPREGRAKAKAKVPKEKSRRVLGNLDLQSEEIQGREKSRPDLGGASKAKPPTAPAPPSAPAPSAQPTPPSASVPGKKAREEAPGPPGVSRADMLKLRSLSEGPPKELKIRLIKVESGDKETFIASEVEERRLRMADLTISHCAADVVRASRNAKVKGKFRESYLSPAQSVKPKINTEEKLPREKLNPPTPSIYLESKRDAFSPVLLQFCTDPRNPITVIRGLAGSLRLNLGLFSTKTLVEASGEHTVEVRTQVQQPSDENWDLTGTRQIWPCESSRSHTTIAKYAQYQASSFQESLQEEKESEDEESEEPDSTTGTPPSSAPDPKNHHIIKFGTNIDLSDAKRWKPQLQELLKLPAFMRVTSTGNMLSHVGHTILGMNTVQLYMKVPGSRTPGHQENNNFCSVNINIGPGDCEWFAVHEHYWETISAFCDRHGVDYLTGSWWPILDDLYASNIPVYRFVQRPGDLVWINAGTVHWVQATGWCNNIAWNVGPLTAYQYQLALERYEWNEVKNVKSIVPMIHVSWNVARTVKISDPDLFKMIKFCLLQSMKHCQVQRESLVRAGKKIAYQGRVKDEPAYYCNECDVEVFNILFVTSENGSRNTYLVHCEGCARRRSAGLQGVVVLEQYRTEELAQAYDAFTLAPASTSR
Chain of KDM5B (Q9UGL1 whole entry, species assumed): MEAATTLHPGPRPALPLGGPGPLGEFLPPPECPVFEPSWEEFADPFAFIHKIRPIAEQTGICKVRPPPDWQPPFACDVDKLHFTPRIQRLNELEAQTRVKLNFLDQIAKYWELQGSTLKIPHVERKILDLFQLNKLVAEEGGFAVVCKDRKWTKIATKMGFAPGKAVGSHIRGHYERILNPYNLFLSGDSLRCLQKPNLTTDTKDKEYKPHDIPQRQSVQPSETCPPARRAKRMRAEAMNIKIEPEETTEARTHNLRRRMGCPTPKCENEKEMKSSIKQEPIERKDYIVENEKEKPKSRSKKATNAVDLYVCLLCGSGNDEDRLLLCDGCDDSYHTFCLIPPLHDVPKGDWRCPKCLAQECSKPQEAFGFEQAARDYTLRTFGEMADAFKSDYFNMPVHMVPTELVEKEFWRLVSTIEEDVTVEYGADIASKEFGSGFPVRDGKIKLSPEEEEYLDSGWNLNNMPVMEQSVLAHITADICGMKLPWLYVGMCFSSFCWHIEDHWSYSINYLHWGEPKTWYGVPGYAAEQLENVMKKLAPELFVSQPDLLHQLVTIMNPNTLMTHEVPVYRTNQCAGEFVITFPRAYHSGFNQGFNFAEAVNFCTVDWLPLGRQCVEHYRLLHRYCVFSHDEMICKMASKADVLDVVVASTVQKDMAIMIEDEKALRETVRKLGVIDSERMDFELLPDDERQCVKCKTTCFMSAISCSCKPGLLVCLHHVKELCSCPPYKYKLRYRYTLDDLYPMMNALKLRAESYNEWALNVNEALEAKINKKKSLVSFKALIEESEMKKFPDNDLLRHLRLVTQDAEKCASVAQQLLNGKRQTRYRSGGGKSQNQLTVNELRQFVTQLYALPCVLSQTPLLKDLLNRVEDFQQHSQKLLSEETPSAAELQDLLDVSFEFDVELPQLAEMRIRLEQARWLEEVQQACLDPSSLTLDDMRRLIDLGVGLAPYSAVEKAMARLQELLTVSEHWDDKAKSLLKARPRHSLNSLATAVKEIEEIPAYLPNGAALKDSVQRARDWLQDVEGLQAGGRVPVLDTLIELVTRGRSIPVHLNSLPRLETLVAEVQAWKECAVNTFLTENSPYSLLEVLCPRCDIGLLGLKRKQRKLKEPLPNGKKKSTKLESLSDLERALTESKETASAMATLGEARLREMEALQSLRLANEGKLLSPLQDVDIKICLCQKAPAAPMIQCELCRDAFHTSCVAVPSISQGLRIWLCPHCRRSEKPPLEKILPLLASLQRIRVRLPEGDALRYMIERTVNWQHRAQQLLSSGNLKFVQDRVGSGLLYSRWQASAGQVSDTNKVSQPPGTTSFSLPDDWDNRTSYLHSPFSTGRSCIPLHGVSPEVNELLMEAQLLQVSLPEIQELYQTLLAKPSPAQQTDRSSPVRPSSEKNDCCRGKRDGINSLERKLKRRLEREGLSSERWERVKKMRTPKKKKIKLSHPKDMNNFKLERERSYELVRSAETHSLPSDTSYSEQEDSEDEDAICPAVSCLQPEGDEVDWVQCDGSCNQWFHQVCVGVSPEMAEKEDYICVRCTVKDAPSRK

SMILES: O=Cc1cccc(C(=O)NCC(=O)O)c1O [compound 1]
HIF-1α upregulation in HeLa cells (HIF-1α in HeLa cells; 50 or 250 µM): no upregulation of HIF-1α
catalytic activity (CODD hydroxylation) of PHD2 covalently modified by the compound (PHD2 [2]): apparently active
IC50 (PHD2 (residues 181-426) [3]): > 100 µM
condensation (covalent adduct) with PHD2 after 5 min (PHD2_181–426; 37 °C): complete condensation
covalent reaction with PHD2 after 20 min (PHD2_181–426; 37 °C): react with PHD2
drop of IC50 on preincubation (PHD2 (residues 181-426) [4]): ~2 fold

SMILES: O=Cc1c(O)c(C(=O)NCC(=O)O)cc2ccccc12 [compound 2]
HIF-1α upregulation in HeLa cells (HIF-1α in HeLa cells; 50 or 250 µM): no upregulation of HIF-1α
catalytic activity (CODD hydroxylation) of PHD2 covalently modified by the compound (PHD2 [2]): apparently active
IC50 (PHD2 (residues 181-426) [3]): > 100 µM
condensation (covalent adduct) with PHD2 after 5 min (PHD2_181–426; 37 °C): ~30%
covalent reaction with PHD2 after 20 min (PHD2_181–426; 37 °C): react with PHD2
drop of IC50 on preincubation (PHD2 (residues 181-426) [4]): ~2 fold

SMILES: C=CCc1cccc(C(=O)NCC(=O)O)c1O [compound 4]
covalent adduct with PHD2 after up to 2 h (PHD2_181–426; equimolar PHD2/Fe(II), 37 °C, up to 2 h): No covalent adduct

SMILES: CCOC(=O)CNC(=O)c1cccc(C=O)c1O [compound 5]
HIF-1α upregulation in HeLa cells (HIF-1α in HeLa cells; 0-500 μM): caused upregulation of HIF-1α
HIF-1α upregulation in HeLa cells at high concentrations (HIF-1α in HeLa cells; >250 μM): more pronounced HIF-1α upregulation

SMILES: C=CC(=O)Nc1cc(N=[N+]=[N-])cc(C(=O)NCC(=O)O)c1O [compound 7]
IC50 (KDM5B): 13.6 µM
IC50 (KDM6B): 8.4 µM
IC50 (KDM4A): 18.2 µM
IC50 (KDM4D): 10.3 µM

The remaining lines, values ahead:

covalent modification of PHD2 (PHD2_181–426): No covalent modification
SMILES: O=Cc1ccc(O)c(C(=O)NCC(=O)O)c1 [S1]

covalent modification of PHD2 (PHD2_181–426): Some apparent covalent modification
SMILES: O=Cc1cccc(C(=O)NCC(=O)O)n1 [S4]
